Experimental data reported in US6268181A, “Methods for producing a potentiator of Bacillus pesticidal activity” (Valent BioSciences, Corporation, priority 1998, dated 2001).

Assays:
Phytophthora medicaginis = conditions: cited from earlier work
Spodoptera exigua = Spodoptera exigua micro-bioassay (potentiation of Bt Cry protein by Ia); format: in vivo; conditions: for Mortality: after 2 days
Description: Activity is monitored by a Spodoptera exigua micro-bioassay, and purity is determined by capillary electrophoresis. […] The trays containing the various samples are air dried. Two to four 2nd or early 3rd instar Spodoptera exigua are added to the wells containing the dried sample. The wells are sealed with mylar poked with holes and are incubated for 2-3 days at 30° C. Degree of stunting and percent mortality are then recorded. Typically, 5 replicate wells are run for each sample.
*Mortality = # insects dead/# total insects after 2 days
.dagger.Stunt score is defined by the average size of the live insect
larvae at the end of the bioassay: 4.0 = untreated control, 3.0 = 75% size
of untreated control, 2.0 = 50% size of untreated control, 1.0 = 25% size
of untreated control, 0.0 = no growth or size unchanged from start of […]

[1] = Table II, 120 μg/ml, without Ia
[2] = Table II, 240 μg/ml, without Ia

NC(=O)NCC(NC(=O)C(O)C(O)C(N)C(O)CC(O)C(N)CO)C(N)=O (stereo not shown) [zwittermicin A]
infection of alfalfa (Phytophthora medicaginis; alfalfa): reduces the infection
growth of Phytophthora medicaginis (Phytophthora medicaginis; plant pathogen): inhibits the growth

CryIA(c): Bt crystal delta-endotoxin; truncated in Table I, full-length (130 kDa) in Table II
Stunt Score (Spodoptera exigua; Table II, 0.8 μg/ml, with Ia): 1.6
Mortality (Spodoptera exigua; Table II, 0.8 μg/ml, with Ia): 2/5
Stunt Score (Spodoptera exigua; Table II, 3 μg/ml, with Ia): 1.0
Mortality (Spodoptera exigua; Table II, 3 μg/ml, with Ia): 4/5
Stunt Score (Spodoptera exigua; Table II, 15 μg/ml, with Ia): 0.0
Mortality (Spodoptera exigua; Table II, 15 μg/ml, with Ia): 4/5
Mortality (Spodoptera exigua; Table II, 30 μg/ml, with Ia): 5/5
Stunt Score (Spodoptera exigua; Table II, 30 μg/ml, without Ia): 4.0
Mortality (Spodoptera exigua; Table II, 30 μg/ml, without Ia): 0/5
Mortality (Spodoptera exigua; Table II, 60 μg/ml, with Ia): 5/5
Stunt Score (Spodoptera exigua; Table II, 60 μg/ml, without Ia): 2.2
Mortality (Spodoptera exigua; Table II, 60 μg/ml, without Ia): 0/5
Stunt Score (Spodoptera exigua; [1]): 2.2
Mortality (Spodoptera exigua; [1]): 0/5
Stunt Score (Spodoptera exigua; [2]): 0.5
Mortality (Spodoptera exigua; [2]): 1/5
concentration giving same mortality/stunt score as protein with Ia (Spodoptera exigua; protein alone, full-length CryIA(c), CryII, CryIC): 240 µg/mL
Mortality (Spodoptera exigua; truncated Bt protein, OD280 0.0006, with Ia): 1/5
Stunt Score (Spodoptera exigua; truncated Bt protein, OD280 0.0006, with Ia, 4.0 = untreated control, 0.0 = no growth): 1.0
Mortality (Spodoptera exigua; truncated Bt protein, OD280 0.0012, with Ia): 0/5
Stunt Score (Spodoptera exigua; truncated Bt protein, OD280 0.0012, with Ia, 4.0 = untreated control, 0.0 = no growth): 1.0
Mortality (Spodoptera exigua; truncated Bt protein, OD280 0.0025, with Ia): 2/5
Stunt Score (Spodoptera exigua; truncated Bt protein, OD280 0.0025, with Ia, 4.0 = untreated control, 0.0 = no growth): 2.0
Mortality (Spodoptera exigua; truncated Bt protein, OD280 0.005, with Ia): 1/5
Stunt Score (Spodoptera exigua; truncated Bt protein, OD280 0.005, with Ia, 4.0 = untreated control, 0.0 = no growth): 0.0
Mortality (Spodoptera exigua; truncated Bt protein, OD280 0.010, with Ia): 0/5
Stunt Score (Spodoptera exigua; truncated Bt protein, OD280 0.010, with Ia, 4.0 = untreated control, 0.0 = no growth): 0.2
Mortality (Spodoptera exigua; truncated Bt protein, OD280 0.020, with Ia): 1/5
Stunt Score (Spodoptera exigua; truncated Bt protein, OD280 0.020, with Ia, 4.0 = untreated control, 0.0 = no growth): 0.0
Mortality (Spodoptera exigua; truncated Bt protein, OD280 0.020, without Ia): 0/5
Stunt Score (Spodoptera exigua; truncated Bt protein, OD280 0.020, without Ia, 4.0 = untreated control, 0.0 = no growth): 2.8
Mortality (Spodoptera exigua; truncated Bt protein, OD280 0.040, without Ia): 0/5
Stunt Score (Spodoptera exigua; truncated Bt protein, OD280 0.040, without Ia, 4.0 = untreated control, 0.0 = no growth): 2.6
Mortality (Spodoptera exigua; truncated Bt protein, OD280 0.075, without Ia): 0/5
Stunt Score (Spodoptera exigua; truncated Bt protein, OD280 0.075, without Ia, 4.0 = untreated control, 0.0 = no growth): 3.4
OD280 giving same stunt score as protein with Ia (Spodoptera exigua; truncated CryIA(c), tested alone): 0.075 OD280
OD280 giving same stunt score as protein alone (Spodoptera exigua; truncated CryIA(c), with Ia): 0.0006 OD280
concentration giving same mortality/stunt score as protein alone (Spodoptera exigua; with Ia, full-length CryIA(c), CryII inclusions, CryIC inclusions): 0.75 µg/mL
